Measurements taken from article PMC9607644, “Glycoconjugation of Quinoline Derivatives Using the C-6 Position in Sugars as a Strategy for Improving the Selectivity and Cytotoxicity of Functionalized Compounds” (Molecules, 2022).

Each compound was assayed on MCF-7 cells (assay: MTT cytotoxicity assay, MCF-7). Conditions: Homo sapiens, MCF7; MTT, incubation time 72 h.
Format: cell-based, human
Description: (§1) An in vitro biological test package was performed for the obtained derivatives. […] The MTT test is a colorimetric method for detecting proliferating cells. It is based on the ability of the enzyme mitochondrial dehydrogenase to convert yellow tetrazole salt (MTT) into purple formazan. The amount of the product formed in the reaction, determined spectrophotometrically, is proportional to the number of living cells.
(§2) The in vitro cytotoxicity of the test compounds was determined by the MTT (3-[4,5–dimethylthiazol-2-yl]-2,5-diphenyltetrazolium bromide) test (Sigma-Aldrich, Taufkirchen, Germany) according to the manufacturer’s protocol. At the beginning, for each cell line were determined the optimal seeding densities to ensure exponential growth throughout the experimental period. The confluent layer of cells were trypsinized, collected, and suspended in a growth medium. […] Then, the culture medium was replaced with solutions of different concentrations of test compounds in a fresh medium. Stock solutions of test compounds were prepared in DMSO and diluted to final concentrations with appropriate volumes of the growth medium directly before the experiment. Cells suspended in a medium supplemented with 0.5% DMSO (the amount of DMSO necessary to dissolve the highest dose of the respective sample) were used as a control of the experiment. […] The compound-treated cells were incubated for a further 24–72 h. […] After this time, the MTT dye was carefully removed, and the acquired formazan crystals were dissolved by DMSO (Chempur, Piekary Śląskie, Poland). The proliferation was evaluated by measuring the formazan product’s absorbance at a wavelength of 570 nm with a microplate spectrophotometer (Epoch, BioTek, Winooski, VT, USA). All experiments were conducted in triplicate with four technical repeats for each tested concentration. Results were expressed as the percentage change in the viability of the test cells relative to the untreated control cells and calculated as the inhibitory concentration (IC50). […] The results are expressed as the average value ± standard deviation (SD).
Work on `CC(=O)OC1O[C@H](Cn2cc(COc3cccc4cccnc34)nn2)[C@@H](OC(C)=O)[C@H](OC(C)=O)[C@H]1OC(C)=O` (stereo partly shown) [Compound A-1] yielded an IC50 of 52.8 ± 0.75 µM. In the case of `OC1O[C@H](Cn2cc(COc3cccc4cccnc34)nn2)[C@@H](O)[C@H](O)[C@H]1O` (stereo partly shown) [Compound A-2], the IC50 is reported as 54.9 ± 8.71 µM. For `O[C@@H]1[C@@H](O)[C@@H](O[C@H]2O[C@H](Cn3cc(COc4cccc5cccnc45)nn3)[C@@H](O)[C@H](O)[C@H]2O)O[C@H](Cn2cc(COc3cccc4cccnc34)nn2)[C@H]1O` [Compound D-2], the IC50 was 34 ± 0.95 µM. In the case of `CC(=O)OC[C@H]1O[C@@H](n2cc(COc3cccc4cccnc34)nn2)[C@H](OC(C)=O)[C@@H](OC(C)=O)[C@@H]1OC(C)=O` [Compound E-1, reference compound], the IC50 is reported as 57.7 ± 3.32 µM. In the case of `OC[C@H]1O[C@@H](n2cc(COc3cccc4cccnc34)nn2)[C@H](O)[C@@H](O)[C@@H]1O` [Compound E-2, reference compound], the IC50 is reported as 185 ± 2.21 µM.

Same assay, conditions: IC50 NHDF-Neo / IC50 MCF-7, 72 h incubation
`CC(=O)OC1O[C@H](Cn2cc(COc3cccc4cccnc34)nn2)[C@@H](OC(C)=O)[C@H](OC(C)=O)[C@H]1OC(C)=O` (stereo partly shown) [Compound A-1] was tested, and the “Selectivity Index (SI) MCF-7” value was 2.46. `OC1O[C@H](Cn2cc(COc3cccc4cccnc34)nn2)[C@@H](O)[C@H](O)[C@H]1O` (stereo partly shown) [Compound A-2] was tested, and the “Selectivity Index (SI) MCF-7” value was 5.78. In the case of `O[C@@H]1[C@@H](O)[C@@H](O[C@H]2O[C@H](Cn3cc(COc4cccc5cccnc45)nn3)[C@@H](O)[C@H](O)[C@H]2O)O[C@H](Cn2cc(COc3cccc4cccnc34)nn2)[C@H]1O` [Compound D-2], the “Selectivity Index (SI) MCF-7” value is reported as 2.08. `CC(=O)OC[C@H]1O[C@@H](n2cc(COc3cccc4cccnc34)nn2)[C@H](OC(C)=O)[C@@H](OC(C)=O)[C@@H]1OC(C)=O` [Compound E-1, reference compound] was tested, and the “Selectivity Index (SI) MCF-7” value was 0.96. For `OC[C@H]1O[C@@H](n2cc(COc3cccc4cccnc34)nn2)[C@H](O)[C@@H](O)[C@@H]1O` [Compound E-2, reference compound], the “Selectivity Index (SI) MCF-7” value was 1.26.

Same assay, conditions: MTT
In the case of `OC[C@H]1O[C@@H](n2cc(COc3cccc4cccnc34)nn2)[C@H](O)[C@@H](O)[C@@H]1O` [Compound E-2, reference compound], the “growth inhibitory activity in words, MCF-7” value is reported as “practically did not affect the cell viability”.

Same assay, conditions: MTT, 72 h, highest doses
`CC(=O)OC1O[C@H](Cn2cc(COc3cccc4cccnc34)nn2)[C@@H](OC(C)=O)[C@H](OC(C)=O)[C@H]1OC(C)=O` (stereo partly shown) [Compound A-1] was tested, and the “inhibition of cell growth at the highest doses, MCF-7” value (“inhibition of cell growth … MCF-7” for short) was 100%. `OC1O[C@H](Cn2cc(COc3cccc4cccnc34)nn2)[C@@H](O)[C@H](O)[C@H]1O` (stereo partly shown) [Compound A-2] was tested, and the “inhibition of cell growth … MCF-7” value was 100%. `CC(=O)OC[C@H]1O[C@@H](n2cc(COc3cccc4cccnc34)nn2)[C@H](OC(C)=O)[C@@H](OC(C)=O)[C@@H]1OC(C)=O` [Compound E-1, reference compound] was tested, and the “inhibition of cell growth … MCF-7” value was 100%.

What follows are compounds tested on NHDF-Neo cells (assay: MTT cytotoxicity assay, NHDF-Neo). Conditions: Homo sapiens, incubation time 72 h.
Format: cell-based
Description: An in vitro biological test package was performed for the obtained derivatives. All newly synthesized compounds were assessed for their cytotoxic activity against human cell lines with increased GLUT expression: the colon cancer cell line (HCT-116) and the breast cancer cell line (MCF-7), as well as on normal human dermal fibroblasts cells (NHDF-Neo), using the MTT assay (3-(4,5-dimethylthiazol-2-yl)-2,5-diphenyltetrazolium bromide). The MTT test is a colorimetric method for detecting proliferating cells. It is based on the ability of the enzyme mitochondrial dehydrogenase to convert yellow tetrazole salt (MTT) into purple formazan. The amount of the product formed in the reaction, determined spectrophotometrically, is proportional to the number of living cells. The antiproliferative activity was expressed as the concentration that caused 50% inhibition of the growth of the population of cells treated with the test compounds relative to the control cells (inhibitory concentration activity—IC50). Table 1 and Table 2 summarize the IC50 values calculated for all tested compounds.
The in vitro cytotoxicity of the test compounds was determined by the MTT (3-[4,5–dimethylthiazol-2-yl]-2,5-diphenyltetrazolium bromide) test (Sigma-Aldrich, Taufkirchen, Germany) according to the manufacturer’s protocol. At the beginning, for each cell line were determined the optimal seeding densities to ensure exponential growth throughout the experimental period. The confluent layer of cells were trypsinized, collected, and suspended in a growth medium. The cell suspension were then seeded into 96-well plates at a density of 1 × 10^4 or 2 × 10^3 (HCT-116) or 5 × 10^3 (MCF-7, NHDF-Neo) per well and incubated for 24 h under standard conditions (5% CO2, 37 °C). Then, the culture medium was replaced with solutions of different concentrations of test compounds in a fresh medium. Stock solutions of test compounds were prepared in DMSO and diluted to final concentrations with appropriate volumes of the growth medium directly before the experiment. Cells suspended in a medium supplemented with 0.5% DMSO (the amount of DMSO necessary to dissolve the highest dose of the respective sample) were used as a control of the experiment. […] The compound-treated cells were incubated for a further 24–72 h. After that, the medium was removed and the MTT solution (50 µL, 0.5 mg/mL in PBS) was added into each well and incubated for another 3 h under standard conditions (5% CO2, 37 °C). After this time, the MTT dye was carefully removed, and the acquired formazan crystals were dissolved by DMSO (Chempur, Piekary Śląskie, Poland). The proliferation was evaluated by measuring the formazan product’s absorbance at a wavelength of 570 nm with a microplate spectrophotometer (Epoch, BioTek, Winooski, VT, USA). All experiments were conducted in triplicate with four technical repeats for each tested concentration. Results were expressed as the percentage change in the viability of the test cells relative to the untreated control cells and calculated as the inhibitory concentration (IC50). The IC50 values were defined as the drug concentration that was necessary to reduce cell proliferation to 50% of the untreated control and this parameter was calculated using CalcuSyn software (version 2.0, Biosoft, Cambridge, UK). The results are expressed as the average value ± standard deviation (SD).
Work on `CC(=O)OC1O[C@H](Cn2cc(COc3cccc4cccnc34)nn2)[C@@H](OC(C)=O)[C@H](OC(C)=O)[C@H]1OC(C)=O` (stereo partly shown) [Compound A-1] yielded an IC50 of 130 ± 1.49 µM. `OC1O[C@H](Cn2cc(COc3cccc4cccnc34)nn2)[C@@H](O)[C@H](O)[C@H]1O` (stereo partly shown) [Compound A-2] was tested, and the IC50 was 317 ± 9.46 µM. `O[C@@H]1[C@@H](O)[C@@H](O[C@H]2O[C@H](Cn3cc(COc4cccc5cccnc45)nn3)[C@@H](O)[C@H](O)[C@H]2O)O[C@H](Cn2cc(COc3cccc4cccnc34)nn2)[C@H]1O` [Compound D-2] gave an IC50 of 70.7 ± 0.75 µM. Compound `CC(=O)OC[C@H]1O[C@@H](n2cc(COc3cccc4cccnc34)nn2)[C@H](OC(C)=O)[C@@H](OC(C)=O)[C@@H]1OC(C)=O` [Compound E-1, reference compound] has an IC50 of 55.3 ± 5.08 µM. In the case of `OC[C@H]1O[C@@H](n2cc(COc3cccc4cccnc34)nn2)[C@H](O)[C@@H](O)[C@@H]1O` [Compound E-2, reference compound], the IC50 is reported as 233 ± 9.44 µM.

These compounds were tested on HCT-116 cells (assay: MTT cytotoxicity assay, HCT-116). Conditions: Homo sapiens, HCT-116; MTT, incubation time 24 h.
Format: cell-based, human
Description: as §1, §2
Compound `CC(=O)OC1O[C@H](Cn2cc(COc3cccc4cccnc34)nn2)[C@@H](OC(C)=O)[C@H](OC(C)=O)[C@H]1OC(C)=O` (stereo partly shown) [Compound A-1] has an IC50 of 83.5 ± 1.91 µM. Compound `OC1O[C@H](Cn2cc(COc3cccc4cccnc34)nn2)[C@@H](O)[C@H](O)[C@H]1O` (stereo partly shown) [Compound A-2] has an IC50 of 191 ± 2.46 µM. Compound `O[C@@H]1[C@@H](O)[C@@H](O[C@H]2O[C@H](Cn3cc(COc4cccc5cccnc45)nn3)[C@@H](O)[C@H](O)[C@H]2O)O[C@H](Cn2cc(COc3cccc4cccnc34)nn2)[C@H]1O` [Compound D-2] has an IC50 of 53.4 ± 5.14 µM. In the case of `OC[C@H]1O[C@@H](n2cc(COc3cccc4cccnc34)nn2)[C@H](O)[C@@H](O)[C@@H]1O` [Compound E-2, reference compound], the IC50 is reported as 212 ± 7.71 µM.

Same assay, conditions: Homo sapiens, HCT-116; MTT, incubation time 72 h
`CC(=O)OC1O[C@H](Cn2cc(COc3cccc4cccnc34)nn2)[C@@H](OC(C)=O)[C@H](OC(C)=O)[C@H]1OC(C)=O` (stereo partly shown) [Compound A-1] showed an IC50 of 12 ± 0.9 µM. Compound `OC1O[C@H](Cn2cc(COc3cccc4cccnc34)nn2)[C@@H](O)[C@H](O)[C@H]1O` (stereo partly shown) [Compound A-2] has an IC50 of 22.3 ± 0.7 µM. `O[C@@H]1[C@@H](O)[C@@H](O[C@H]2O[C@H](Cn3cc(COc4cccc5cccnc45)nn3)[C@@H](O)[C@H](O)[C@H]2O)O[C@H](Cn2cc(COc3cccc4cccnc34)nn2)[C@H]1O` [Compound D-2] was tested, and the IC50 was 21.3 ± 0.94 µM. `CC(=O)OC[C@H]1O[C@@H](n2cc(COc3cccc4cccnc34)nn2)[C@H](OC(C)=O)[C@@H](OC(C)=O)[C@@H]1OC(C)=O` [Compound E-1, reference compound] showed an IC50 of 45.7 ± 1.81 µM. With `OC[C@H]1O[C@@H](n2cc(COc3cccc4cccnc34)nn2)[C@H](O)[C@@H](O)[C@@H]1O` [Compound E-2, reference compound] the IC50 was 162 ± 5.97 µM.

Same assay, conditions: IC50 NHDF-Neo / IC50 HCT-116, 72 h incubation
With `CC(=O)OC1O[C@H](Cn2cc(COc3cccc4cccnc34)nn2)[C@@H](OC(C)=O)[C@H](OC(C)=O)[C@H]1OC(C)=O` (stereo partly shown) [Compound A-1] the “Selectivity Index (SI) HCT-116” value was 10.83. With `OC1O[C@H](Cn2cc(COc3cccc4cccnc34)nn2)[C@@H](O)[C@H](O)[C@H]1O` (stereo partly shown) [Compound A-2] the “Selectivity Index (SI) HCT-116” value was 14.21. With `O[C@@H]1[C@@H](O)[C@@H](O[C@H]2O[C@H](Cn3cc(COc4cccc5cccnc45)nn3)[C@@H](O)[C@H](O)[C@H]2O)O[C@H](Cn2cc(COc3cccc4cccnc34)nn2)[C@H]1O` [Compound D-2] the “Selectivity Index (SI) HCT-116” value was 3.32. `CC(=O)OC[C@H]1O[C@@H](n2cc(COc3cccc4cccnc34)nn2)[C@H](OC(C)=O)[C@@H](OC(C)=O)[C@@H]1OC(C)=O` [Compound E-1, reference compound] was tested, and the “Selectivity Index (SI) HCT-116” value was 1.21. With `OC[C@H]1O[C@@H](n2cc(COc3cccc4cccnc34)nn2)[C@H](O)[C@@H](O)[C@@H]1O` [Compound E-2, reference compound] the “Selectivity Index (SI) HCT-116” value was 1.43.

Same assay, conditions: MTT
In the case of `OC[C@H]1O[C@@H](n2cc(COc3cccc4cccnc34)nn2)[C@H](O)[C@@H](O)[C@@H]1O` [Compound E-2, reference compound], the “growth inhibitory activity in words, HCT-116” value is reported as “practically did not affect the cell viability”.

Same assay, conditions: MTT, 72 h, highest doses
In the case of `CC(=O)OC1O[C@H](Cn2cc(COc3cccc4cccnc34)nn2)[C@@H](OC(C)=O)[C@H](OC(C)=O)[C@H]1OC(C)=O` (stereo partly shown) [Compound A-1], the “inhibition of cell growth at the highest doses, HCT-116” value (from here on “inhibition of cell growth … HCT-116”) is reported as 100%. With `OC1O[C@H](Cn2cc(COc3cccc4cccnc34)nn2)[C@@H](O)[C@H](O)[C@H]1O` (stereo partly shown) [Compound A-2] the “inhibition of cell growth … HCT-116” value was 100%. With `CC(=O)OC[C@H]1O[C@@H](n2cc(COc3cccc4cccnc34)nn2)[C@H](OC(C)=O)[C@@H](OC(C)=O)[C@@H]1OC(C)=O` [Compound E-1, reference compound] the “inhibition of cell growth … HCT-116” value was 100%.
